According to PubChem BioAssay AID248 (DTP/NCI, 2004):
Toxic doses and inconclusive results are not listed. Cut-off read from the data, not from the text of the source: active = T/C of 150% or more; inactive = T/C below 125%.

Tested on: L1210 leukemia ip in BDF1 mice, survival T/C
Experiment: NCI In Vivo Anticancer Drug Screen. Data for tumor model L1210 Leukemia (intraperitoneal) in B6D2F1 (BDF1) mice
Conditions: endpoint: mean survival time, higher = longer survival
Procedure, shortened: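 Read-out is survival time, reported as the treated-group measurement over the vehicle-control measurement.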

[1] = dose: 100.0 mg/kg/injection, schedule: Q01DX009 (ip), vehicle: saline
[2] = dose: 100.0 mg/kg/injection, schedule: Q04DX003 (ip), vehicle: Klucel (hydroxypropylcellulose) (HPC)
[3] = dose: 100.0 mg/kg/injection, schedule: Q01DX001 (ip), vehicle: carboxymethylcellulose (CMC)
[4] = dose: 200.0 mg/kg/injection, schedule: Q01DX001 (ip), vehicle: carboxymethylcellulose (CMC)
[5] = dose: 200.0 mg/kg/injection, schedule: Q04DX003 (ip), vehicle: Klucel (hydroxypropylcellulose) (HPC)
[6] = dose: 400.0 mg/kg/injection, schedule: Q04DX003 (ip), vehicle: Klucel (hydroxypropylcellulose) (HPC)
[7] = dose: 100.0 mg/kg/injection, schedule: Q01DX009 (ip), vehicle: Klucel (hydroxypropylcellulose) (HPC)
[8] = dose: 200.0 mg/kg/injection, schedule: Q01DX009 (ip), vehicle: Klucel (hydroxypropylcellulose) (HPC)
[9] = dose: 100.0 mg/kg/injection, schedule: Q01DX001 (ip), vehicle: saline
[10] = dose: 200.0 mg/kg/injection, schedule: Q01DX001 (ip), vehicle: saline
[11] = dose: 400.0 mg/kg/injection, schedule: Q01DX001 (ip), vehicle: saline
[12] = dose: 400.0 mg/kg/injection, schedule: Q01DX009 (ip), vehicle: Klucel (hydroxypropylcellulose) (HPC)

Measured: T/C

Cc1ccc(-n2ccnc2)c(N=Cc2ccc(N(CCCl)CCCl)cc2F)c1
inactive: dose: 100.0 mg/kg/injection, schedule: Q04DX002 (ip), vehicle: Klucel (hydroxypropylcellulose) (HPC) 98 % of control | dose: 200.0 mg/kg/injection, schedule: Q04DX002 (ip), vehicle: Klucel (hydroxypropylcellulose) (HPC) 106 % of control | dose: 400.0 mg/kg/injection, schedule: Q04DX002 (ip), vehicle: Klucel (hydroxypropylcellulose) (HPC) 106 % of control

CCCCCCCCCCCCCCCc1cccc2ccccc12
inactive: dose: 100.0 mg/kg/injection, schedule: Q04DX003 (ip), vehicle: saline with Tween-80 92 % of control | dose: 200.0 mg/kg/injection, schedule: Q04DX003 (ip), vehicle: saline with Tween-80 92 % of control | dose: 400.0 mg/kg/injection, schedule: Q04DX003 (ip), vehicle: saline with Tween-80 88 % of control

COc1cc2ccc(CC3NCCc4cc5c(cc43)OCO5)cc2cc1OC (stereo not given)
inactive: dose: 100.0 mg/kg/injection, schedule: Q01DX009 (ip), vehicle: saline sonified 93 % of control | dose: 100.0 mg/kg/injection, schedule: Q04DX003 (ip), vehicle: saline sonified 88 % of control | dose: 200.0 mg/kg/injection, schedule: Q01DX009 (ip), vehicle: saline sonified 98 % of control | dose: 200.0 mg/kg/injection, schedule: Q04DX003 (ip), vehicle: saline sonified 88 % of control | dose: 400.0 mg/kg/injection, schedule: Q01DX009 (ip), vehicle: saline sonified 93 % of control | dose: 400.0 mg/kg/injection, schedule: Q04DX003 (ip), vehicle: saline sonified 95 % of control

O=C(O)/C=C/c1c2ccc(=O)c(O)c-2oc2c(O)c(O)ccc12
inactive: dose: 10.0 mg/kg/injection, schedule: Q04DX003 (ip), vehicle: other 94 % of control | dose: 20.0 mg/kg/injection, schedule: Q04DX003 (ip), vehicle: other 98 % of control | dose: 40.0 mg/kg/injection, schedule: Q04DX003 (ip), vehicle: other 88 % of control | dose: 50.0 mg/kg/injection, schedule: Q04DX003 (ip), vehicle: other 106 % of control | dose: 80.0 mg/kg/injection, schedule: Q04DX003 (ip), vehicle: other 89 % of control | dose: 100.0 mg/kg/injection, schedule: Q04DX003 (ip), vehicle: other 107 % of control

ClCCCCOCC1CCCO1 (stereo not given)
inactive: dose: 100.0 mg/kg/injection, schedule: Q01DX009 (ip), vehicle: saline with Tween-80 100 % of control | dose: 200.0 mg/kg/injection, schedule: Q01DX009 (ip), vehicle: saline with Tween-80 107 % of control

CN(C)/C(=C/c1ccccc1)CS(=O)(=O)N(C)C
inactive: dose: 75.0 mg/kg/injection, schedule: Q01DX001 (ip), vehicle: carboxymethylcellulose (CMC) 106 % of control | dose: 150.0 mg/kg/injection, schedule: Q01DX001 (ip), vehicle: carboxymethylcellulose (CMC) 97 % of control | dose: 300.0 mg/kg/injection, schedule: Q01DX001 (ip), vehicle: carboxymethylcellulose (CMC) 89 % of control

CCOC(=O)C(=O)C(C#N)C(=O)OCC (stereo not given)
inactive: dose: 12.5 mg/kg/injection, schedule: Q04DX003 (ip), vehicle: Klucel (hydroxypropylcellulose) (HPC) 100 % of control | dose: 25.0 mg/kg/injection, schedule: Q01DX009 (ip), vehicle: saline 98 % of control | dose: 25.0 mg/kg/injection, schedule: Q04DX003 (ip), vehicle: Klucel (hydroxypropylcellulose) (HPC) 100 % of control | dose: 50.0 mg/kg/injection, schedule: Q01DX009 (ip), vehicle: saline 98 % of control | dose: 50.0 mg/kg/injection, schedule: Q04DX003 (ip), vehicle: Klucel (hydroxypropylcellulose) (HPC) 91 % of control | [1] 95 % of control | [2] 97 % of control

Cn1c(N)c(N=Nc2ccc(S(=O)(=O)Nc3ccccn3)cc2)c(=O)n(C)c1=O
inactive: [3] 98 % of control | [4] 93 % of control | dose: 400.0 mg/kg/injection, schedule: Q01DX001 (ip), vehicle: carboxymethylcellulose (CMC) 93 % of control

CC1([CH2][Hg][I])COCC([CH2][Hg][I])O1 (stereo not given)
inactive: dose: 0.78 mg/kg/injection, schedule: Q01DX001 (ip), vehicle: acetone 105 % of control | dose: 0.78 mg/kg/injection, schedule: Q04DX003 (ip), vehicle: saline 98 % of control | dose: 1.56 mg/kg/injection, schedule: Q01DX001 (ip), vehicle: acetone 94 % of control | dose: 1.56 mg/kg/injection, schedule: Q04DX003 (ip), vehicle: saline 96 % of control | dose: 3.12 mg/kg/injection, schedule: Q01DX001 (ip), vehicle: acetone 94 % of control | dose: 3.12 mg/kg/injection, schedule: Q04DX003 (ip), vehicle: saline 98 % of control | dose: 4.6 mg/kg/injection, schedule: Q04DX003 (ip), vehicle: acetone 93 % of control | dose: 5.75 mg/kg/injection, schedule: Q01DX009 (ip), vehicle: acetone 107 % of control | dose: 7.0 mg/kg/injection, schedule: Q04DX003 (ip), vehicle: acetone 96 % of control | dose: 10.5 mg/kg/injection, schedule: Q04DX003 (ip), vehicle: acetone 95 % of control | dose: 11.5 mg/kg/injection, schedule: Q01DX009 (ip), vehicle: acetone 107 % of control | dose: 15.0 mg/kg/injection, schedule: Q04DX003 (ip), vehicle: saline 110 % of control | dose: 23.0 mg/kg/injection, schedule: Q01DX009 (ip), vehicle: acetone 111 % of control | dose: 23.0 mg/kg/injection, schedule: Q04DX003 (ip), vehicle: saline 110 % of control

Cc1[nH]c(=O)[nH]c(=O)c1S(=O)(=O)O
inactive: [2] 98 % of control | [5] 93 % of control | [6] 98 % of control

CN(C)Cc1cc(C(C)(C)CC(C)(C)C)cc(CN(C)C)c1O
inactive: [7] 97 % of control | [8] 99 % of control

NCCSC1(O)C(=O)c2ccccc2-c2ccccc21 (stereo not given)
inactive: dose: 37.5 mg/kg/injection, schedule: Q04DX003 (ip), vehicle: saline 94 % of control | dose: 75.0 mg/kg/injection, schedule: Q01DX001 (ip), vehicle: saline 101 % of control | dose: 75.0 mg/kg/injection, schedule: Q04DX003 (ip), vehicle: saline 103 % of control | dose: 150.0 mg/kg/injection, schedule: Q01DX001 (ip), vehicle: saline 95 % of control | dose: 150.0 mg/kg/injection, schedule: Q04DX003 (ip), vehicle: saline 95 % of control

C=CCc1ccccc1C
inactive: [9] 106 % of control | [10] 102 % of control | [11] 101 % of control

O=C(COc1cccc(Cl)c1)Nc1ccc(Cl)cc1
inactive: dose: 100.0 mg/kg/injection, schedule: Q01DX009 (ip), vehicle: gum acacia 86 % of control | dose: 200.0 mg/kg/injection, schedule: Q01DX009 (ip), vehicle: gum acacia 86 % of control | dose: 400.0 mg/kg/injection, schedule: Q01DX009 (ip), vehicle: gum acacia 87 % of control

CCN(CC)CC(C)(N)c1c2ccccc2nc2c1ccc1ccccc12 (stereo not given)
inactive: dose: 50.0 mg/kg/injection, schedule: Q01DX009 (ip), vehicle: other 101 % of control | dose: 100.0 mg/kg/injection, schedule: Q01DX009 (ip), vehicle: other 111 % of control | dose: 200.0 mg/kg/injection, schedule: Q01DX009 (ip), vehicle: other 119 % of control

CC(=O)OCC(O)CO (stereo not given)
inactive: [1] 102 % of control | dose: 200.0 mg/kg/injection, schedule: Q01DX009 (ip), vehicle: saline 96 % of control | dose: 400.0 mg/kg/injection, schedule: Q01DX009 (ip), vehicle: saline 102 % of control

O=C(Cc1ccccc1)OCC#CC#CCOC(=O)Cc1ccccc1
inactive: [7] 103 % of control | [2] 92 % of control | [8] 98 % of control | [5] 91 % of control | [12] 97 % of control | [6] 92 % of control

COc1cc(C=Nc2ccc(-c3csc(-c4ccccc4)n3)c(Cl)c2)ccc1N(CCCl)CCCl
active: dose: 20.0 mg/kg/injection, schedule: Q01DX009 (ip), vehicle: carboxymethylcellulose (CMC) 158 % of control | [3] 166 % of control
inactive: dose: 13.3 mg/kg/injection, schedule: Q01DX001 (ip), vehicle: carboxymethylcellulose (CMC) 122 % of control | [4] 95 % of control

COC(=O)c1cc(C)ccc1C
inactive: [9] 101 % of control | [10] 98 % of control | [11] 101 % of control

CCC1(CCCCCl)OCCO1
inactive: [7] 103 % of control | [8] 97 % of control | [12] 103 % of control
